Data as given in US6660752B2, “2,6-Substituted chroman derivatives useful as beta-3 adrenoreceptor agonists” (Bayer Pharmaceuticals Corporation, priority 2001, dated 2003).
Structures can show the parent of a compound that is named as a salt.

The molecules below were run against T1, human beta-3-adrenergic receptor (Homo sapiens, UniProt P13945) (assay: cAMP production (beta-3 agonist activity) in CHO cells stably expressing human beta-3-adrenergic receptor, cAMP SPA). Settings: CHO cells expressing full-length human beta-3-adrenergic receptor, 30 min incubation, 10 μM to 3 nM, read-out: Beta-3 Agonistic Activity: Compounds with EC50 values ≦1 μM.
T1 construct: stably express full-length human beta-3-adrenergic receptor; expressed in transfected cells; host or cells: Chinese hamster ovary (CHO) cells
T1 sequence (P13945 whole entry): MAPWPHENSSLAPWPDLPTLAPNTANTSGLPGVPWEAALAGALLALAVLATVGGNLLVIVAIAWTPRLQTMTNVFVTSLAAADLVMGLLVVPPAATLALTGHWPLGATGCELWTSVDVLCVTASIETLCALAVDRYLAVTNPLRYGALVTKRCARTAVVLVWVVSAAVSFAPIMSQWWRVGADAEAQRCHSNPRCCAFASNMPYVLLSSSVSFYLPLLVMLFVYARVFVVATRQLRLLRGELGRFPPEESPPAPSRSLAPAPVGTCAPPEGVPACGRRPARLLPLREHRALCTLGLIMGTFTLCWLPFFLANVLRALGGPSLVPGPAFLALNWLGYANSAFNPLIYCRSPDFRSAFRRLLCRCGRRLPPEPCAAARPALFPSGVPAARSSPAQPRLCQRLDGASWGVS
Assay type: cell-based
Experimental: Chinese hamster ovary (CHO) cells that stably express full-length human beta-3-adrenergic receptor (Granneman et al., Mol. Pharmacol. 44:264-270, 1993) can be used in the following procedure. The cell line is grown in 90% F12 nutrient mixture (HAM), 10% fetal bovine serum, 100 units/ml penicillin G sodium, […] streptomycin sulfate, and 2 mM L-glutamine at 37° C. in 95% air and 5% CO2. The transfected cell line is maintained with G-418 (800 μg/ml).
To test the agonist activity, cells are exposed to test compound and then assayed for cAMP production. CHO cells (100 μl) are plated at 5×10^4 cells/well of a 96-well plate (Costar, Cambridge, Mass.) to achieve 70% confluency the next day. After overnight incubation at 37° C., media is removed and the cells are treated for 30 minutes at 37° C. with KRP buffer (120 mM NaCl, 5.1 mM KCl, 0.6 mM MgSO4.7H2O, 0.8 mM CaCl2.H2O, […] phosphate buffer, […] Hepes pH 7.4)+[…] IBMX ([…]), +1% DMSO, +/− test compounds ([…]). Test compounds are assayed from 10 μM to 3 nM with 3-fold serial dilutions. The control agonist, isoproterenol (10 mM stock in 1.1 mM ascorbate), is assayed by 3-fold dilution beginning at 1 μM. After a 30-minute incubation with the test compounds, the buffer/compound mixture is removed. The cells are lysed and cAMP levels are measured using the cAMP SPA screening assay system (Amersham, Arlington Heights, Ill.). The cAMP values are then plotted to determine the EC50 of each compound tested.

EC50, ≤ 1000 nM:
Nc1ccc([C@@H](O)CNC[C@H]2CCc3cc(-c4cccc(C(=O)N5CCCC5)c4)ccc3O2)cn1 [Example 383]
O=C(Nc1ccc(Cl)cc1)NS(=O)(=O)c1cccc(-c2ccc3c(c2)CC[C@H](CNC[C@H](O)c2cccnc2)O3)c1 [Example 335]
O=S(=O)(Nc1ccc(-c2ccc3c(c2)CC[C@H](CNC[C@H](O)c2cccnc2)O3)nc1)c1ccccc1 [Example 319, N-{6-[(2R)-2-({[(2R)-2-hydroxy-2-(3-pyridinyl)ethyl]amino}methyl)-3,4-dihydro-2H-chromen-6-yl]-3-pyridinyl}benzenesulfonamide Trihydrochloride]
Cc1ccc(-c2cc(-c3ccc4c(c3)CC[C@H](CNC[C@H](O)c3cccnc3)O4)ccc2C(=O)O)cc1 [Example 205, 5-[(2R)-2-({[(2R)-2-hydroxy-2-(3-pyridinyl)ethyl]amino}methyl)-3,4-dihydro-2H-chromen-6-yl]-4′-methyl-1,1′-biphenyl-2-carboxylic Acid]
N#Cc1ccc(NS(=O)(=O)c2cccc(-c3ccc4c(c3)CC[C@H](CNC[C@H](O)c3cccnc3)O4)c2)cc1 [Example 257]
O[C@@H](CNC[C@H]1CCc2cc(I)ccc2O1)c1cccnc1 [Example 36, (1R)-2-({[(2R)-6-iodo-3,4-dihydro-2H-chromen-2-yl]methyl}amino)-1-(3-pyridinyl)ethanol]
O=S(=O)(Nc1ccccn1)c1cccc(-c2ccc3c(c2)CC[C@H](CNC[C@H](O)c2cccnc2)O3)c1 [Example 254]
CN(C)CC(=O)NS(=O)(=O)c1cccc(-c2ccc3c(c2)CC[C@H](CNC[C@H](O)c2cccnc2)O3)c1 [Example 304]
Cc1ccc(S(=O)(=O)CC(=O)c2ccc(-c3ccc4c(c3)CC[C@H](CNC[C@H](O)c3cccnc3)O4)cc2)cc1 [Example 309]
CS(=O)(=O)c1ccc(Oc2cc(-c3ccc4c(c3)CC[C@H](CNC[C@H](O)c3cccnc3)O4)ccc2C(=O)O)cc1 [Example 198, 4-[(2R)-2-({[(2R)-2-hydroxy-2-(3-pyridinyl)ethyl]amino}methyl)-3,4-dihydro-2H-chromen-6-yl]-2-[4-(methylsulfonyl)phenoxy]benzoic acid]
O=C(CS(=O)(=O)c1ccccc1)c1ccc(-c2ccc3c(c2)CC[C@H](CNC[C@H](O)c2cccnc2)O3)cc1 [Example 308, 1-{4-[(2R)-2-({[(2R)-2-hydroxy-2-(3-pyridinyl)ethyl]amino}methyl)-3,4-dihydro-2H-chromen-6-yl]phenyl}-2-(phenylsulfonyl)ethanone Dihydrochloride]
O=C1CCc2cc(NS(=O)(=O)c3cccc(-c4ccc5c(c4)CC[C@H](CNC[C@H](O)c4cccnc4)O5)c3)ccc21 [Example 255]
N#Cc1ccc(NS(=O)(=O)c2ccc(-c3ccc4c(c3)CC[C@H](CNC[C@H](O)c3cccnc3)O4)cc2)cc1 [Example 256]
CS(=O)(=O)Nc1ccc(-c2ccc3c(c2)CC[C@H](CNC[C@H](O)c2cccnc2)O3)nc1 [Example 321, N-{6-[(2R)-2-({[(2R)-2-hydroxy-2-(3-pyridinyl)ethyl]amino}methyl)-3,4-dihydro-2H-chromen-6-yl]-3-pyridinyl}methanesulfonamide]
COc1ccc(-c2ccc3c(c2)CCC(CNC[C@H](O)c2cccnc2)O3)cc1S(=O)(=O)Nc1ccc(C#N)cc1 (some centres unmarked) [Example 277]
COC(=O)c1ccc(-c2ccc3c(c2)CC[C@H](CNC[C@H](O)c2ccc(N)nc2)O3)cc1 [Example 381]
O=C(Nc1cccc(C(F)(F)F)c1)NS(=O)(=O)c1cccc(-c2ccc3c(c2)CC[C@H](CNC[C@H](O)c2cccnc2)O3)c1 [Example 337]
CCOC(=O)c1ccc(Oc2cc(-c3ccc4c(c3)CC[C@H](CNC[C@H](O)c3cccnc3)O4)ccc2C(=O)O)cc1 [Example 197, 2-[4-(ethoxycarbonyl)phenoxy]-4-[(2R)-2-({[(2R)-2-hydroxy-2-(3-pyridinyl)ethyl]amino}methyl)-3,4-dihydro-2H-chromen-6-yl]benzoic acid]
CCC(CC)C(=O)NS(=O)(=O)c1ccc(-c2ccc3c(c2)CC[C@H](CNC[C@H](O)c2cccnc2)O3)cc1 [Example 289]
CC(=O)Nc1ccc(-c2ccc3c(c2)CC[C@H](CNC[C@H](O)c2cccnc2)O3)nc1 [Example 323]
Cc1cc(Cl)ccc1NC(=O)NS(=O)(=O)c1ccc(-c2ccc3c(c2)CC[C@H](CNC[C@H](O)c2cccnc2)O3)cc1 [Example 330, 3-((1R)-2-{[((2R)-6-{4-[({[(4-chloro-2-methylphenyl)amino]carbonyl}amino)sulfonyl]phenyl}-3,4-dihydro-2H-chromen-2-yl)methyl]amino}-1-hydroxyethyl)pyridine]
COc1cc(-c2ccc3c(c2)CC[C@H](CNC[C@H](O)c2cccnc2)O3)ccc1C(=O)O [Example 184, 4-[(2R)-2-({[(2R)-2-hydroxy-2-(3-pyridinyl)ethyl]amino}methyl)-3,4-dihydro-2H-chromen-6-yl]-2-methoxybenzoic acid]
CC(C)NC(=O)NS(=O)(=O)c1ccc(-c2ccc3c(c2)CC[C@H](CNC[C@H](O)c2cccnc2)O3)cc1 [Example 339]
O=C(NS(=O)(=O)c1ccc(-c2ccc3c(c2)CC[C@H](CNC[C@H](O)c2cccnc2)O3)cc1)c1ccccc1 [Example 294, N-benzoyl-4-[(2R)-2-({[(2R)-2-hydroxy-2-(3-pyridinyl)ethyl]amino}methyl)-3,4-dihydro-2H-chromen-6-yl]benzenesulfonamide]
Nc1ccc(-c2ccc3c(c2)CC[C@H](CNC[C@H](O)c2cccnc2)O3)nc1 [Example 317, (1R)-2-({[(2R)-6-(5-amino-2-pyridinyl)-3,4-dihydro-2H-chromen-2-yl]methyl}amino)-1-(3-pyridinyl)ethanol Tetrahydrochloride]
Cc1ccc(NC(=O)NS(=O)(=O)c2ccc(-c3ccc4c(c3)CC[C@H](CNC[C@H](O)c3cccnc3)O4)cc2)cc1 [Example 326, 3-((1R)-1-hydroxy-2-{[((2R)-6-{4-[({[(4-methylphenyl)amino]carbonyl}amino)sulfonyl]phenyl}-3,4-dihydro-2H-chromen-2-yl)methyl]amino}ethyl)pyridine]
O=C(Nc1cccc(F)c1)NS(=O)(=O)c1ccc(-c2ccc3c(c2)CC[C@H](CNC[C@H](O)c2cccnc2)O3)cc1 [Example 338]
COc1cc(C)nc(NS(=O)(=O)c2cc(-c3ccc4c(c3)CC[C@H](CNC[C@H](O)c3cccnc3)O4)ccc2OC)n1 [Example 271]
Nc1ccc([C@@H](O)CNC[C@H]2CCc3cc(C(=O)NC4(C(=O)O)CC4)ccc3O2)cn1 [Example 366, 1-({[(2R)-2-({[(2R)-2-(6-amino-3-pyridinyl)-2-hydroxyethyl]amino}methyl)-3,4-dihydro-2H-chromen-6-yl]carbonyl}amino)cyclopropanecarboxylic acid]
O=S(=O)(Nc1cccnc1)c1cccc(-c2ccc3c(c2)CC[C@H](CNC[C@H](O)c2cccnc2)O3)c1 [Example 260]
N#Cc1ccc(NS(=O)(=O)c2ccc(-c3ccc4c(c3)CC[C@H](CNC[C@H](O)c3cccnc3)O4)cc2OC(F)(F)F)cc1 [Example 262, N-(4-cyanophenyl)-4-[(2R)-2-({[(2R)-2-hydroxy-2-(3-pyridinyl)ethyl]amino}methyl)-3,4-dihydro-2H-chromen-6-yl]-2-(trifluoromethoxy)benzenesulfonamide]
COc1ccc(-c2ccc3c(c2)CC[C@H](CNC[C@H](O)c2cccnc2)O3)cc1S(=O)(=O)Nc1ncccn1 [Example 272]
COc1ccc(-c2ccc3c(c2)CC[C@H](CNC[C@H](O)c2cccnc2)O3)cc1S(=O)(=O)Nc1ccc(C(C)=O)cc1 [Example 280]
O=C(Nc1ccccc1)NS(=O)(=O)c1cccc(-c2ccc3c(c2)CC[C@H](CNC[C@H](O)c2cccnc2)O3)c1 [Example 332]
O=C(O)c1ccc(-c2ccc3c(c2)CC[C@H](CNC[C@@H](O)c2cccc(Cl)c2F)O3)cc1 [Example 352]
